Like-named read-outs stand apart in the source and are kept apart here.
Assays:
Crj:CD(SD)IGS rats [1] = details: rat, in vivo
Procedure: After completion of the administration, in all animals, livers, kidneys, spleens, lungs and mesenteric lymph nodes were sampled, these sampled tissues were examined for histopathological changes by conventional methods of optical microscopy and electron microscopy. In addition, a blood smear sample (Giemsa stain sample) was prepared, and the vacuolated lymphocyte ratio of the peripheral blood was measured with observation under a microscope.

blood [2] = experiment: GeneChip analysis of blood (Rat Expression Array 230A), 7-day administration; format: in vivo; details: rat blood 24 hr after 7 consecutive days of oral administration, pooled, 4 rats per group; dose per compound in table
Procedure: (§1) After collection using PAXgene Blood RNA Tube (PreAnalytiX), the blood was stood for 2 hr or more, and cryopreserved at −80° C. Total RNA was extracted using a PAXgene Blood RNA Kit (PreAnalytiX). A sample for GeneChip analysis was prepared and analyzed according to the protocol provided by Affymetrix Inc. cDNA synthesis reaction was carried out using a SuperScript Choice system (Invitrogen), then biotin-labeled cRNA synthesis reaction was carried out using Enzo BioArray HighYield RNA Transcript Labeling Kit (Affymetrix), after which cRNA was fragmented and a labeled sample was prepared. The labeled sample was hybridized to Rat Expression Array 230A (RAE230A, Affymetrix), the array was stained, washed and scanned by GeneChip system (Affymetrix), and the following three image data were obtained from one sheet of array.
(§2) From the image data, measurement value (Signal), numerical data such as Signal Log Ratio and the like and determination data such as Detection, Change and the like were obtained using MicroarraySuite5.0 (parameter: Default value). Fold Change was calculated from Signal Log Ratio of the image data 2 using the conversion equation of Fold Change=2^Signal Log Ratio.
(§3) (*In GeneChip analysis using RAE230A, 11 sites per one measurement target sequence are measured, and the measurement results at 11 sites are combined to give one numerical value and determination data. RAE230A contains 15924 combinations of 11 site measurement sets, and each measurement set is referred to as a probe set.)
(§4) A probe set wherein two or more of the above-mentioned three image data satisfy the following three conditions was taken as a variation probe set.
(§5) 1. A probe set judged as Increase or Decrease by MicroarraySuite5.0 2. A probe set whose higher measurement value (Signal) was judged as Presence by MicroarraySuite5.0 3.
At 24 hr after completion of the oral administration for 7 consecutive days in Example 3, the blood was collected from the compound administration group and the control (non-administration) group (4 rats per group), which was pooled and subjected to GeneChip analysis in the same manner as in Example 2.

Crj:CD(SD)IGS rats [3] = details: rat, in vivo; remark: listed apart in the source
blood [4] = experiment: GeneChip analysis of blood (Rat Expression Array 230A), 3-day administration; format: in vivo; details: rat blood 24 hr after 3 consecutive days of oral administration, pooled, 3 rats per group; dose per compound in table
Procedure: At 24 hr after completion of the oral administration for 3 consecutive days in Example 1, the blood was collected from the compound administration group and the control (non-administration) group (3 rats per group), which was pooled and subjected to GeneChip analysis.
as §1
1. data of staining by a method omitting fluorescence amplification reaction by antibody 2. data of staining by the method described in a manual for once performing fluorescence amplification reaction by antibody 3. data of staining by a method for twice performing fluorescence amplification reaction by antibody
as §2, §3, §4, §5

SMILES | Histopathological findings (PLsis) Kidney (Crj:CD(SD)IGS rats [1]) | Histopathological findings (PLsis) Liver (Crj:CD(SD)IGS rats [1]) | Histopathological findings (PLsis) Lung (Crj:CD(SD)IGS rats [1]) | Histopathological findings (PLsis) Lymph node (Crj:CD(SD)IGS rats [1]) | Histopathological findings (PLsis) Spleen (Crj:CD(SD)IGS rats [1]) | Number of expression variation probe sets, Decreased expression (blood [2]) | Number of expression variation probe sets, Increased expression (blood [2]) | Histopathological findings (PLsis) Liver (Crj:CD(SD)IGS rats [3]) | Histopathological findings (PLsis) Lung (Crj:CD(SD)IGS rats [3]) | Histopathological findings (PLsis) Lymph node (Crj:CD(SD)IGS rats [3]) | Histopathological findings (PLsis) Others (Crj:CD(SD)IGS rats [3]) | Histopathological findings (PLsis) Spleen (Crj:CD(SD)IGS rats [3]) | Number of expression variation probe sets, Decreased expression (blood [4]) | Number of expression variation probe sets, Increased expression (blood [4])
CCN(CC)CCCC(C)Nc1c2ccc(Cl)cc2nc2ccc(OC)cc12 (stereo not drawn) [Quinacrine, quinacrine] | + | ++ | + | − | + | 103 | 258 | + | + | + | − | − | 392 | 240
CNCCC(Oc1ccc(C(F)(F)F)cc1)c1ccccc1 (stereo not drawn) [Fluoxetine, fluoxetine] |  |  |  |  |  |  |  | + | + | + | brain | − | 391 | 372
CC/C(=C(\c1ccccc1)c1ccc(OCCN(C)C)cc1)c1ccccc1 [Tamoxifen, tamoxifen] | − | − | + | ++ | − | 368 | 546 | + | + | + | − | − | 94 | 258
C1CCC(C(CC2CCCCN2)C2CCCCC2)CC1 (stereo not drawn) [Perhexiline, perhexiline] | − | − | + | + | − | 83 | 49 | − | + | + | − | + | 179 | 310
CCN(CC)CCCC(C)Nc1ccnc2cc(Cl)ccc12 (stereo not drawn) [Chloroquine, chloroquine] | − | + | − | − | + | 179 | 310 | − | − | + | − | + | 318 | 382
CN(C)CCCN1c2ccccc2CCc2ccccc21 [Imipramine, imipramine] | − | ++ | + | − | − | 320 | 123 |  |  |  |  |  |  | 
CCCCc1oc2ccccc2c1C(=O)c1cc(I)c(OCCN(CC)CC)c(I)c1 [Amiodarone, amiodarone] | − | − | ++ | ++ | − | 457 | 515 | − | + | + | − | + | 282 | 613

— patent US20100129790A1, “Method for Determining Phospholipidosis” (TAKEDA PHARMACEUTICAL LIMITED, priority 2005, published 2010)
